Common to all, as to format: biochemical
The target of one assay is T1, Recombinant human JAK1 (Homo sapiens, UniProt P23458).
T1 construct: catalytic domain (amino acids 866-1154; catalog number PV4774); purchased Invitrogen PV4774
Nature of the assay: JAK1 Ulight-JAK1 peptide assay. The following applies: Ulight-JAK1(tyr1023) peptide, 7 μM ATP. The protocol:
Recombinant human JAK1 (catalytic domain, amino acids 866-1154; catalog number PV4774) was purchased from Invitrogen. 1 ng of JAK1 was incubated with 20 nM Ulight-JAK1(tyr1023) peptide (Perkin Elmer catalog number TRF0121) in kinase reaction buffer (25 mM MOPS pH6.8, 0.01% Brij-35, 5 mM MgCl2, 2 mM DTT, 7 μM ATP) with or without 4 μL containing test compound or vehicle (DMSO, 1% final concentration), in a total volume of 20 μL, in a white 384 Opti plate (Perkin Elmer, catalog number 6007290). After 60 min at room temperature, reactions were stopped by adding 20 μL/well of detection mixture (1× detection buffer (Perkin Elmer, catalog number CR97-100C), 0.5 nM Europium-anti-phosphotyrosine (PT66) (Perkin Elmer, catalog number AD0068), 10 mM EDTA). Readout is performed using the Envision with excitation at 320 nm and measuring emission at 615 nm (Perkin Elmer). Kinase activity was calculated by subtracting relative fluorescence units (RFU) obtained in the presence of a positive control inhibitor (10 μM staurosporine) from RFU obtained in the presence of vehicle. The ability of a test compound to inhibit this activity was determined as: Percentage inhibition=((RFU determined for sample with test compound present−RFU determined for sample with positive control inhibitor)divided by(RFU determined in the presence of vehicle−RFU determined for sample with positive control inhibitor))*100.
Dose dilution series were prepared for the compounds enabling the testing of dose-response effects in the JAK1 assay and the calculation of the IC50 for the compound. Each compound is routinely tested at concentration of 20 μM followed by a ⅕ serial dilution, 10 points in a final concentration of 1% DMSO. When potency of compound series increases, more dilutions are prepared and/or the top concentration are lowered (e.g. 5 μM, 1 μM). The data are expressed as the average IC50 from the assays±standard error of the mean.

The target of the next assay is T2, Recombinant human JAK2 (Homo sapiens, UniProt O60674).
T2 construct: catalytic domain (amino acids 808-1132; catalog number PV4210); GST; purchased Invitrogen PV4210
T2 sequence (O60674 808-1132): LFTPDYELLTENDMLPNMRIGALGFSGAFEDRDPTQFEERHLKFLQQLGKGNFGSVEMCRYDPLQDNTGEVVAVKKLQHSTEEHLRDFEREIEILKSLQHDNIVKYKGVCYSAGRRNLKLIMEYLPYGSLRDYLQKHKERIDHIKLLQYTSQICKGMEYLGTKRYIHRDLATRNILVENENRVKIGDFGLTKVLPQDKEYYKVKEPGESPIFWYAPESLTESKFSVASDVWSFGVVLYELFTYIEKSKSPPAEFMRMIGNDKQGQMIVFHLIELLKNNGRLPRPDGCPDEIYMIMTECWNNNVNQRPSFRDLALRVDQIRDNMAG
Nature of the assay: JAK2 Ulight-JAK1 peptide assay. Conditions: Ulight-JAK1(tyr1023) peptide, 7.5 μM ATP. The protocol: Recombinant human JAK2 (catalytic domain, amino acids […]; catalog number PV4210) was purchased from Invitrogen. 0.0125 mU of JAK2 was incubated with 25 nM Ulight-JAK1(tyr1023) peptide (Perkin Elmer catalog number TRF0121) in kinase reaction buffer (25 mM HEPES pH7.0, 0.01% Triton X-100, 7.5 mM MgCl2, 2 mM DTT, 7.5 μM ATP) with or without 4 μL containing test compound or vehicle (DMSO, 1% final concentration), in a total volume of 20 μL, in a white 384 Opti plate (Perkin Elmer, catalog number 6007290). After 60 min at room temperature, reactions were stopped by adding 20 μL/well of detection mixture (1× detection buffer (Perkin Elmer, catalog number CR97-100C), 0.5 nM Europium-anti-phosphotyrosine (PT66) (Perkin Elmer, catalog number AD0068), 10 mM EDTA). Readout is performed using the Envision with excitation at 320 nm and measuring emission at 615 nm (Perkin Elmer). Kinase activity was calculated by subtracting relative fluorescence units (RFU) obtained in the presence of a positive control inhibitor (10 μM staurosporine) from RFU obtained in the presence of vehicle. The ability of a test compound to inhibit this activity was determined as: Percentage inhibition=((RFU determined for sample with test compound present−RFU determined for sample with positive control inhibitor)divided by(RFU determined in the presence of vehicle−RFU determined for sample with positive control inhibitor))*100.
Dose dilution series were prepared for each compound enabling the testing of dose-response effects in the JAK2 assay and the calculation of the IC50 for the compound. Each compound is routinely tested at concentration of 20 μM followed by a ⅕ serial dilution, 10 points in a final concentration of 1% DMSO. When potency of compound series increases, more dilutions are prepared and/or the top concentration are lowered (e.g. 5 μM, 1 μM). The data are expressed as the average IC50 from the assays±standard error of the mean.

In assay [1] the target is T3, Recombinant human JAK3 catalytic domain (Homo sapiens, UniProt P52333).
T3 construct: catalytic domain (amino acids 795-1124; catalog number 08-046); purchased Carna Biosciences 08-046
T3 sequence (P52333 795-1124): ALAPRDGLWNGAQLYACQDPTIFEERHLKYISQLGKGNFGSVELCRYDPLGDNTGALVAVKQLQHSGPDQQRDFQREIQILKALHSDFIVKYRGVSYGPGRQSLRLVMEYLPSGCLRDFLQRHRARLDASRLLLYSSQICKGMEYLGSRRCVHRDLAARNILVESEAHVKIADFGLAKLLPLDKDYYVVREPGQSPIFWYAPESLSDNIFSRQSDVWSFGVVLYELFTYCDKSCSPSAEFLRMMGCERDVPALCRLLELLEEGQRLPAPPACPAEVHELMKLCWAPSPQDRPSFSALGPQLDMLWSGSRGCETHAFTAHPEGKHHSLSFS
Nature of the assay: JAK3 inhibition assay. Conditions: polyGT substrate, 33P-gamma-ATP filter assay, 1 μM ATP. The protocol:
Recombinant human JAK3 catalytic domain (amino acids 795-1124; catalog number 08-046) was purchased from Carna Biosciences. 0.5 ng JAK3 protein was incubated with 2.5 μg polyGT substrate (Sigma catalog number P0275) in kinase reaction buffer (25 mM Tris pH 7.5, 0.5 mM EGTA, 10 mM MgCl2, 2.5 mM DTT, 0.5 mM Na3VO4, 5 mM b-glycerolphosphate, 0.01% Triton X-100, 1 μM non-radioactive ATP, 0.25 μCi ^33P-gamma-ATP (Perkin Elmer, catalog number NEG602K001MC) final concentrations) with or without 5 μL containing test compound or vehicle (DMSO, 1% final concentration), in a total volume of 25 μL, in a polypropylene 96-well plate (Greiner, V-bottom). After 45 min at 30° C., reactions were stopped by adding 25 μL/well of 150 mM phosphoric acid. All of the terminated kinase reaction was transferred to prewashed (75 mM phosphoric acid) 96 well filter plates (Perkin Elmer catalog number 6005177) using a cell harvester (Perkin Elmer). Plates were washed 6 times with 300 μL per well of a 75 mM phosphoric acid solution and the bottom of the plates was sealed. 40 μL/well of Microscint-20 was added, the top of the plates was sealed and readout was performed using the Topcount (Perkin Elmer). Kinase activity was calculated by subtracting counts per min (cpm) obtained in the presence of a positive control inhibitor (10 μM staurosporine) from cpm obtained in the presence of vehicle. The ability of a test compound to inhibit this activity was determined as: Percentage inhibition=((cpm determined for sample with test compound present−cpm determined for sample with positive control inhibitor)divided by(cpm determined in the presence of vehicle−cpm determined for sample with positive control inhibitor))*100.
Dose dilution series were prepared for the compounds enabling the testing of dose-response effects in the JAK3 assay and the calculation of the IC50 for each compound. Each compound was routinely tested at concentration of 20 μM followed by a ⅕ serial dilution, 10 points in a final concentration of 1% DMSO. When potency of compound series increased, more dilutions were prepared and/or the top concentration was lowered (e.g. 5 μM, 1 μM).

T1 sequence (P23458 866-1154): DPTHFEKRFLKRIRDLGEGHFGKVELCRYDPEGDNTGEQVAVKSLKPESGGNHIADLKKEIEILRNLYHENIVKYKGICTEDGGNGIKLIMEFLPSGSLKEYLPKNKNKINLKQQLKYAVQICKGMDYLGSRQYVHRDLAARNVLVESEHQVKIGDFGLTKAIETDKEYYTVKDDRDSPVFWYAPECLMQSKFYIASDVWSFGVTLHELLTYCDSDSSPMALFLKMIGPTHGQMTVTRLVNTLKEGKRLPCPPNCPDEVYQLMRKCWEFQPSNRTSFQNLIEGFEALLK

Turning to `COc1ccc(-c2cccn3nc(NC(=O)C4CC4)cc23)cc1` [Compound 1, N-(4-(4-methoxyphenyl)pyrazolo[1,5-a]pyridin-2-yl)cyclopropanecarboxamide], the IC50 (at Recombinant human JAK1; on Recombinant human JAK2; in assay [1]) was 0.01 to 100 nM each time.
Turning to `O=C(Nc1cc2c(-c3ccc(OCc4ccccc4)cc3)cccn2n1)C1CC1` [Compound 2, N-(4-(4-(benzyloxy)phenyl)pyrazolo[1,5-a]pyridin-2-yl)cyclopropanecarboxamide], the IC50 – broadly, the midpoint of a concentration-inhibition curve – at Recombinant human JAK1 fell in the range of 101 to 500 nM; on Recombinant human JAK2, 101 to 500 nM; in assay [1], 0.01 to 100 nM.
For `O=C(Nc1cc2c(-c3ccc4c(ccn4Cc4ccccc4)c3)cccn2n1)C1CC1` [Compound 3, N-(4-(1-benzyl-1H-indol-5-yl)pyrazolo[1,5-a]pyridin-2-yl)cyclopropanecarboxamide], the IC50 at Recombinant human JAK1 was above 1000 nM; at Recombinant human JAK2, 101 to 500 nM; in assay [1], 0.01 to 100 nM.
For the molecule `O=C(Nc1cc2c(-c3ccc4[nH]ccc4c3)cccn2n1)C1CC1` [Compound 4, N-(4-(1H-indol-5-yl)pyrazolo[1,5-a]pyridin-2-yl)cyclopropanecarboxamide], the IC50 at Recombinant human JAK1 lay in the range of 101 to 500 nM; on Recombinant human JAK2, 0.01 to 100 nM; in assay [1], 0.01 to 100 nM.
Regarding `O=C(NCCc1ccccc1)c1ccc(-c2cccn3nc(NC(=O)C4CC4)cc23)cc1` [Compound 5, 4-(2-(cyclopropanecarboxamido)pyrazolo[1,5-a]pyridin-4-yl)-N-phenethylbenzamide], the IC50 is 0.01 to 100 nM on Recombinant human JAK1, 0.01 to 100 nM at Recombinant human JAK2 and above 1000 nM in assay [1].
With `O=C(NCCOc1ccccc1)c1ccc(-c2cccn3nc(NC(=O)C4CC4)cc23)cc1` [Compound 6, 4-(2-(cyclopropanecarboxamido)pyrazolo[1,5-a]pyridin-4-yl)-N-(2-phenoxyethyl)benzamide], the IC50 (on Recombinant human JAK1; on Recombinant human JAK2; in assay [1]) was 0.01 to 100 nM each time.
Consider `COc1ccc(-c2cccn3nc(NC(=O)C4CC4)c(-c4ccccc4)c23)cc1` [Compound 7, N-(4-(4-methoxyphenyl)-3-phenylpyrazolo[1,5-a]pyridin-2-yl)cyclopropanecarboxamide], for which the IC50 (on Recombinant human JAK1; on Recombinant human JAK2; in assay [1]) was above 1000 nM in each case.
On to `O=C(Nc1cc2c(-c3ccc(OCc4cccnc4)cc3)cccn2n1)C1CC1` [Compound 8, N-(4-(4-(pyridin-3-ylmethoxy)phenyl)pyrazolo[1,5-a]pyridin-2-yl)cyclopropanecarboxamide], for which the IC50 in assay [1] is 101 to 500 nM.
As for `N#Cc1ccc(COc2ccc(-c3cccn4nc(NC(=O)C5CC5)cc34)cc2)cn1` [Compound 9, N-(4-(4-((6-cyanopyridin-3-yl)methoxy)phenyl)pyrazolo[1,5-a]pyridin-2-yl)cyclopropanecarboxamide], the IC50 (on Recombinant human JAK1; at Recombinant human JAK2; in assay [1]) was 0.01 to 100 nM in each case.
`O=C(Nc1cc2c(-c3ccc(CN4CCS(=O)(=O)CC4)cc3)cccn2n1)C1CC1` [Compound 10, Cyclopropanecarboxylic acid {4-[4-(1,1-dioxo-thiomorpholin-4-ylmethyl)-phenyl]-pyrazolo[1,5-a]pyridin-2-yl}-amide]: the IC50 (on Recombinant human JAK1; at Recombinant human JAK2; in assay [1]) was 0.01 to 100 nM each time.
Consider `O=C(Nc1nn2cccc(-c3ccc(CN4CCS(=O)(=O)CC4)cc3)c2c1F)C1CC1` [Compound 11, Cyclopropanecarboxylic acid {4-[4-(1,1-dioxo-thiomorpholin-4-ylmethyl)-phenyl]-3-fluoro-pyrazolo[1,5-a]pyridin-2-yl}-amide], for which the IC50 (on Recombinant human JAK1; on Recombinant human JAK2; in assay [1]) was 0.01 to 100 nM throughout.
In the case of `O=C(Nc1nn2cccc(-c3ccc(CN4CCS(=O)(=O)CC4)cc3)c2c1Br)C1CC1` [Compound 12, Cyclopropanecarboxylic acid {4-[4-(1,1-dioxo-thiomorpholin-4-ylmethyl)-phenyl]-3-bromo-pyrazolo[1,5-a]pyridin-2-yl}-amide], the IC50 on Recombinant human JAK1 fell in the range of 0.01 to 100 nM; on Recombinant human JAK2 it was 0.01 to 100 nM; in assay [1] it was 101 to 500 nM.
Regarding `O=C(Nc1nn2cccc(-c3ccc(CN4CCS(=O)(=O)CC4)cc3)c2c1Cl)C1CC1` [Compound 13, Cyclopropanecarboxylic acid {4-[4-(1,1-dioxo-thiomorpholin-4-ylmethyl)-phenyl]-3-chloro-pyrazolo[1,5-a]pyridin-2-yl}-amide], the IC50 was in the range of 0.01 to 100 nM at Recombinant human JAK1, 0.01 to 100 nM on Recombinant human JAK2 and 101 to 500 nM in assay [1].
On to `O=C(Nc1cc2c(-c3ccc(C(=O)N4CCCCC4)cc3)cccn2n1)C1CC1` [Compound 14, Cyclopropanecarboxylic acid {4-[4-(piperidine-1-carbonyl)-phenyl]-pyrazolo[1,5-a]pyridin-2-yl}-amide], for which the IC50 on Recombinant human JAK1 was in the range of 0.01 to 100 nM; on Recombinant human JAK2, 0.01 to 100 nM; in assay [1], 101 to 500 nM.
On to `CS(=O)(=O)N1CCN(Cc2ccc(-c3cccn4nc(NC(=O)C5CC5)cc34)cc2)CC1` [Compound 15, N-(4-(4-((4-(methylsulfonyl)piperazin-1-yl)methyl)phenyl)pyrazolo[1,5-a]pyridin-2-yl)cyclopropanecarboxamide], for which the IC50 (on Recombinant human JAK1; at Recombinant human JAK2; in assay [1]) was 0.01 to 100 nM each time.
For `CS(=O)(=O)C1CCN(Cc2ccc(-c3cccn4nc(NC(=O)C5CC5)cc34)cc2)CC1` [Compound 17, N-(4-(4-((4-(methylsulfonyl)piperidin-1-yl)methyl)phenyl)pyrazolo[1,5-a]pyridin-2-yl)cyclopropanecarboxamide], the results for the IC50 (at Recombinant human JAK1; at Recombinant human JAK2; in assay [1]) were 0.01 to 100 nM, 0.01 to 100 nM and 101 to 500 nM, respectively.

The record behind these values is patent US8975406B2, “Compound useful for the treatment of degenerative and inflammatory diseases” (Galapagos N.V., priority 2011, dated 2015).
